The test system of one assay is MEF cells. The experiment in a line: Annexin V staining, flow cytometry, MEF cells. Type of assay: cell-based, mouse. The procedure: FIG. 16: (A) U2OS cells were pre-treated with DMSO or MW01 and irradiated. Cells were lysed 8 h post γ-IR and were used for western blotting and immunochemical staining. (B) HEK293 cells were pre-treated with DMSO or MW01 and irradiated. After 48 h cells were fixed and stained with crystal violet. Dissolved crystal violet was used for absorbance measurement in a visible light spectrophotometer at a wavelength of 595 nm. (C) HEK293 cells were pre-treated with DMSO or MW01 and irradiated. The percentage of viable cells within the population was calculated by exclusion of annexin V and propidium-iodide positive cells measured by flow cytometry. (D) MEF cells were pre-treated with DMSO or MW01 and irradiated. Cells were used for annexin V staining 24 h and 48 after γ-IR. Percentage of annexin V positive cell population was analysed using a flow cytometer. (E) Experiment done as shown in (D) but with HT1080 cells processed 8 h after irradiation. Statistical significance was calculated using students t-test.
Cells were washed with ice-cold PBS and detached from growing dishes using Trypsin/EDTA solution. Detached cells were centrifuged at 300×g for 5 min. Detection of early apoptotic cells was performed by staining with annexin V-FITC antibody according to manufacturer's instructions (eBioscience Annexin V-FITC Apoptosis detection Kit). Necroptotic and late apoptotic cells were stained by addition of propidium iodide (final concentration 1 μg/ml) prior to measurements.
The sensitising effect of MW01 on cells was tested in MEF cells with a low irradiation dose of 2 Gy, an amount cells are able to repair. Cells were pre-treated with MW01, irradiated and cells were analysed by annexin V staining 24 or 48 h after irradiation. After 24 h, the treatment of cells with MW01 led to an increase of annexin V positive cells of about 10%. […] Comparing the annexin V positive cells of MW01 treated and MW01/γ-IR co-treated samples, a sensitising effect for low γ-irradiation dose-induced apoptosis of about 12% was found (FIG. 16 D).

Another assay relates to DNA repair mechanisms. The experiment in a line: γH2AX foci per nucleus, immunofluorescence, U2OS cells. The class given is cell-based, human. The following applies: 5 μM, untreated (non-irradiated) cells, 5 hours. As for the experimental part: FIG. 17: U2OS cells grown on coverslips were incubated 30 min with DMSO or MW01 (5 μM). Then, cells were γ-irradiated (5 Gy) or mock irradiated (mock IR). After 5 hours, cells were fixed and subjected to immunofluorescence staining procedure. DNA damage-indicating γH2AX foci and nuclei n≥480 nuclei per condition) were counted for the calculation of average foci per nucleus. Significance was calculated using student's t-test.
U2OS cells were grown on coverslips and incubated 30 min with DMSO or MW01 (5 μM). Then, cells were γ-irradiated (5 Gy) or mock irradiated (mock IR). After 5 hours, cells were fixed and subjected to immunofluorescence staining procedure. DNA damage-indicating γH2AX foci and nuclei (n≥480 nuclei per condition) were counted for the calculation of average foci per nucleus. Significance was calculated using student's t-test.

Assay [1] relates to genotoxic stress-induced NF-κB signaling. The experiment in a line: Etoposide-induced p65 nuclear translocation, immunofluorescence / high content screening in U2OS cells. Type of assay: cell-based, human. As for the experimental part: FIG. 2: U2OS cells were pre-treated and incubated with DMSO or MW01. DNA damage was induced by administration of etoposide. After 2 h cells were fixed, nuclei were stained with DAPI. p65 and phospho-H2AX, which is indicative for DNA DSB, were stained by immunofluorescence. Images were taken at a confocal Zeiss 710 LSM with a 40× oil objective.
FIG. 3: (A) U2OS cells were pre-treated with increasing concentrations of MW01 in duplicates in a 384 well plate. Then, cells were treated with etoposide, fixed and subjected to IF of p65. Spatial measurement of p65 cytosolic and nuclear localisation was used for calculation of p65 translocation rates. (B) U2OS cells were pre-treated with DMSO, MW01 and irradiated with γ-IR. After 90 min cells were lysed and subjected to SDS-PAGE/WB and EMSA. (C) Cells were pre-treated with different concentrations of MW01 as indicated, treated with γ-IR (C) or etoposide (D) and subjected to WB or EMSA, respectively. LDH in (C) represents the loading control.
Genotoxic stress was applied by ionizing irradiation of cells with a Cs137 source (0629 Irradiator, STS Braunschweig), or by inhibition of the topoisomerase II enzyme by administration of etoposide at concentrations between 20-50 μM for 2 h.
For immunofluorescence staining 0.95×10^5 cells were seeded in 6 well plates onto autoclaved cover slips. Cellular confluency dictated to beginning of the experiment (2-3 days from seeding). After conduction of experiments cells were washed with PBS and fixed with 4% PFA/double-distilled H2O (ddH2O) for 10 min at RT. Following two additional washing steps cells were incubated with a solution containing 0.12% glycine/0.2% saponin in PBS for 10 min and then blocked with a solution containing 10% FCS/0.2% saponin in PBS for 1 h. Primary antibody incubation was performed overnight at 4° C. (1:500 diluted in 0.2% saponin in PBS). The next day, cover slips were washed five times with a solution containing 0.2% saponin in PBS. Fluorophor-coupled secondary antibodies (1:1000 diluted in 0.2% saponin in PBS) were incubated for 1 h (hour) at RT. Nuclei were stained using 0.2 mg/ml DAPI in PBS for […] or by directly mounting with DAPI/Mowiol. Finally, the cover slips were washed five times with 0.2% saponin in PBS and two times with ddH2O. Confocal microscopy was performed using a Zeiss 710 LSM with a 40× or a 63× oil objective.
In order to identify specific inhibitors of the DNA damage-induced NF-κB pathway, a differential screening assay was designed. The primary screening for inhibitors of genotoxic stress-induced NF-κB signaling utilised a library of compounds from ChemBioNet and donated compounds of academic chemists. DNA damage was applied by application of etoposide. All compounds which inhibited p65 nuclear translocation were taken for subsequent counter screening. For the counter screening administration of TNFα was used to induce canonical NF-κB signaling. All substances inhibiting TNFα-induced canonical NF-κB activation were discarded from the list of potential DNA damage-pathway specific substances.

The next assay deals with T1, ATM (Homo sapiens, UniProt Q13315).
T1 construct: endogenous in cells; host or cells: HepG2
T1 sequence (Q13315 whole entry): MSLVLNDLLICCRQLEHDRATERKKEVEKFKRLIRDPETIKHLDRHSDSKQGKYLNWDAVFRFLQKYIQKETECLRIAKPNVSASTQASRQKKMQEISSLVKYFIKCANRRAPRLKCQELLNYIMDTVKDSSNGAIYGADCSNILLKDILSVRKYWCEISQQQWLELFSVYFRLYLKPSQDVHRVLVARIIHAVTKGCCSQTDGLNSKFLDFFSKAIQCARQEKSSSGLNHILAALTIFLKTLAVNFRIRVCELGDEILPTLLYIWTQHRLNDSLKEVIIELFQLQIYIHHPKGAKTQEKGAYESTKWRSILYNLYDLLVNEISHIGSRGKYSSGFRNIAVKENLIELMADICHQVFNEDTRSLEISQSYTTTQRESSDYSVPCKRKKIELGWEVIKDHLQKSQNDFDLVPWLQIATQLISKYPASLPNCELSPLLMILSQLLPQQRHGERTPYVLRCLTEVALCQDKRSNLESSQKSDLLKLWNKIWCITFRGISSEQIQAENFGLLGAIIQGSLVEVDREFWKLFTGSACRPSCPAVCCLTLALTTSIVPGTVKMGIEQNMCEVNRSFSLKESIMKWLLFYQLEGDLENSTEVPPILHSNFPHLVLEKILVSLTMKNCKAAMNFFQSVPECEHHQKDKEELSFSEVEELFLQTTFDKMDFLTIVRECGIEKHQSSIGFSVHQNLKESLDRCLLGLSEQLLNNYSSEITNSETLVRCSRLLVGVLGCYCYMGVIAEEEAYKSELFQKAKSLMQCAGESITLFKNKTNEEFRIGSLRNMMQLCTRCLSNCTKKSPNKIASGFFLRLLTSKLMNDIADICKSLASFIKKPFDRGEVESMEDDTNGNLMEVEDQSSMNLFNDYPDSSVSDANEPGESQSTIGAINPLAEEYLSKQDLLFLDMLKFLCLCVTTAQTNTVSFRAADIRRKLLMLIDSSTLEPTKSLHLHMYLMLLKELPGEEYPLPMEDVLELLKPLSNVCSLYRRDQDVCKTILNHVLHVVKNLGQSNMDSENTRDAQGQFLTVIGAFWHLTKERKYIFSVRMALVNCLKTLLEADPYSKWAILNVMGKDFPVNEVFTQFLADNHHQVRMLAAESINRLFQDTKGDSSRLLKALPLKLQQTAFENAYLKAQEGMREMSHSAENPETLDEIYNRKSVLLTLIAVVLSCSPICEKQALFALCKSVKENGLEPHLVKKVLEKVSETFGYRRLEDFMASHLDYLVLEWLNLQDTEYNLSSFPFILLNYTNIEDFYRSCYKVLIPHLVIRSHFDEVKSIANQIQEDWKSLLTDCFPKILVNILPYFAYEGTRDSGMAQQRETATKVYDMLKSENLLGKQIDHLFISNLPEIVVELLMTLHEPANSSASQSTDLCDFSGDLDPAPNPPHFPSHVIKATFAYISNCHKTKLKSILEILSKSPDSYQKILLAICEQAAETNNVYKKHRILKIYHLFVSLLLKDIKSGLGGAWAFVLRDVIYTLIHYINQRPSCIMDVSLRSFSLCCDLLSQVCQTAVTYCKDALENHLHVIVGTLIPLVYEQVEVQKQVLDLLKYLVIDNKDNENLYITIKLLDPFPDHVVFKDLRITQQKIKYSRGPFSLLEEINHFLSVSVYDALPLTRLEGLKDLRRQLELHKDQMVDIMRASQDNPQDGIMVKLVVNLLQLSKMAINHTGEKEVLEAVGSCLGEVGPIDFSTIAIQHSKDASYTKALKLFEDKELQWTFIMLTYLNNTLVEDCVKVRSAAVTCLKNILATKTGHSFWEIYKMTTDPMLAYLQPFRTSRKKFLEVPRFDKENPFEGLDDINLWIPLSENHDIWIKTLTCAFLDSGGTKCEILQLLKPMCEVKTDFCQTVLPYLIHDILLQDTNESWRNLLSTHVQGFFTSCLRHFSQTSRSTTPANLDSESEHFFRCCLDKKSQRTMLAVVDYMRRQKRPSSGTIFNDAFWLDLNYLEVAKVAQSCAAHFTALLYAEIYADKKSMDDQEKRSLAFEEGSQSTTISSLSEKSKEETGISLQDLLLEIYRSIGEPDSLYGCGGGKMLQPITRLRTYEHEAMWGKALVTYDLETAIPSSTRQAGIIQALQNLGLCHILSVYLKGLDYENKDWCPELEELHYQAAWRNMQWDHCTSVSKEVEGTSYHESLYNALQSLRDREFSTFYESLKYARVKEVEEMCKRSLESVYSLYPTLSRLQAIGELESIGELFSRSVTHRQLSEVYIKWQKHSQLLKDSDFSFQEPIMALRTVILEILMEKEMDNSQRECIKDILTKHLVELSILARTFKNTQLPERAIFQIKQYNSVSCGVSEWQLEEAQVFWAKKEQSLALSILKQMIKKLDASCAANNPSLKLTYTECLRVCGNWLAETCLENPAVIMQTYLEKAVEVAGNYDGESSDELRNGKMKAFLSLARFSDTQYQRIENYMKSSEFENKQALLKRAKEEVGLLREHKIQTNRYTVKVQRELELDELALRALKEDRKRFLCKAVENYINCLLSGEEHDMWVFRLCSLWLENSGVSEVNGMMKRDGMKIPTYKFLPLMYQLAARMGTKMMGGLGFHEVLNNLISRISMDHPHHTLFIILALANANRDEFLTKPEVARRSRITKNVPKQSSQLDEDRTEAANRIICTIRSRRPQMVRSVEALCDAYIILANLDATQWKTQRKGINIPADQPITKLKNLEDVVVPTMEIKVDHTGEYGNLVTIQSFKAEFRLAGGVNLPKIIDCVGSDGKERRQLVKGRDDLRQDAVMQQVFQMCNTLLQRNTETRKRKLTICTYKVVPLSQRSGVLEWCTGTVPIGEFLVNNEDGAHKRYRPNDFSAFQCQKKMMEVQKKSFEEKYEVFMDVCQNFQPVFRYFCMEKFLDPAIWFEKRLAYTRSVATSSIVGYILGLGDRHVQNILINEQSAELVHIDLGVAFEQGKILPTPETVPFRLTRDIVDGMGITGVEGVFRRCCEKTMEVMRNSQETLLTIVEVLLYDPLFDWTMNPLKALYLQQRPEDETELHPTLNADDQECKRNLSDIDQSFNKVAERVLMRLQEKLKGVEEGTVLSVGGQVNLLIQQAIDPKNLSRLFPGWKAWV
The experiment in a line: Enzymatic activity of ATM in γ-irradiated HepG2 cells, WB of ATM and substrate phosphorylation. Type of assay: cell-based. As for the experimental part: FIG. 9: HepG2 cells were pre-incubated with DMSO, MW01 (5 μM) or the ATM inhibitor Ku55933 (10 μM) and irradiated. After 60 min cells were harvested and processed. Immunochemical staining of Western blotting membranes was done using indicated antibodies.

Setting [2] is: HepG2, γ-irradiation, 60 min, MW01 5 μM, Ku55933 10 μM.

For orientation: IC50 means the concentration that inhibits the measured activity by half. Low readings indicate greater potency in that assay, high ones weaker potency in that assay.

“Also recorded” adds a separate entry of the source.

With `COc1ccc2c(c1OC)c(=O)n1c3ccc(O)cc3c3ccnc2c31` [MW01, 12-hydroxy-6,7-dimethoxy-8H-benzo[c]indolo[3,2,1-ij][1,5]naphthyridin-8-one], the “increase of annexin V positive cells” value in the assay on MEF cells (24 h, without IR) is listed as “about 10%”. Further, the “sensitising effect for low γ-irradiation dose-induced apoptosis” value in the assay with MEF cells (MW01 vs MW01/γ-IR co-treated samples) is on record as “about 12%”. Also, the “annexin V staining of cells” value in the assay with MEF cells (after 2 Gy of γ-irradiation) is given as “circa 34%”. Also, the “γH2AX foci per cell” value in the assay with DNA repair mechanisms is given as “significant increase”. The molecule further showed an IC50 in assay [1] (Homo sapiens, U2OS, etoposide-induced p65 nuclear translocation, high content screening) of 460 nM. Besides, in assay [1] (IC50 determination assay), the “calculated Hill coefficient” value is reported as −0.9. Besides, the “percentage in activity change (as recorded in IC50 determination assay)” value in assay [1] (etoposide) was determined as 120%. In assay [1] (etoposide stimulation, U2OS), the “concentration sufficient for maximal inhibition of p65 nuclear translocation” value was 5 µM. Besides, the “inhibition of etoposide-induced p65 nuclear translocation / NF-κB activation” value in assay [1] (etoposide, U2OS) is reported as “inhibited NF-κB activation in response to etoposide stimulation; also recorded: inhibited the nuclear translocation of p65 upon etoposide stimulation in a concentration dependent manner”. For the same molecule, on ATM (setting [2]), the “ATM auto-phosphorylation and phosphorylation of the ATM substrates p53 and KAP1” value was “no effects”; the “phosphorylation state of p53bp1” value was “mild effects”. In addition, at ATM (conclusion from auto-phosphorylation and substrate phosphorylation), the “enzymatic activity of ATM” value is “not affected”.

Source of the values: patent publication US11028084B2, “Selective inhibitors of gentotoxic steress-induced IKK/NF-κB pathways” (Max-Delbrück-Centrum für Molekulare Medizin in der …, priority 2016, dated 2021).
